Laboratory results: patent publication US11389433B2, “BRD4 inhibitor treatment of IgE-mediated diseases” (THE BOARD OF REGENTS OF THE UNIVERSITY OF TEXAS SYSTEM, priority 2018, dated 2022)
Each block holds one compound with its values, some of them ahead of it.

Legend:
[1] = cited from earlier work
[2] = system: rCDE-challenged C57BL/6 mice; test: Repetitive cat dander extract (rCDE) challenge, airway remodeling model; type: in vivo, mouse; conditions: 10 mg/kg ip; for modified Ashcroft score: rCDE alone 8.8±2 (IKKi study), 9±2 (ZL0454 study)
Method: 12 week old male wild-type (WT) C57BL/6 mice were purchased from Jackson Laboratory (Bar Harbor, Me.). CDE (Stallergenes/Greer laboratories, 20 μg/dose) was administered to naïve C57BL6/J mice every other day via the intranasal route for a total of 15 administrations (n=5 mice/group). In the IKK inhibitor experiments, mice were either pretreated with vehicle or the selective IKK inhibitor [BMS345541, 10 mg/kg via the intraperitoneal (ip) route]. […] Mice were sacrificed 12 d later to allow resolution of the acute inflammation.
Formalin-fixed lungs were embedded in paraffin, sectioned at a 4 μm thickness, and stained with hematoxylin and eosin or Masson's trichrome. Microscopy was performed on a NIKON Eclipse Ti System 16, 17. Pulmonary fibrosis was graded using a modified Ashcroft scoring method 16, 17. In brief, to determine the fibrosis histopathology score for the lung of each mouse, the entire left and right longitudinal lung sections were scored separately (score range, 0 to 9) at ×100 magnification, and the scores were combined (total score range, 0 to 18)^16, 17.
Bronchoalveolar lavage and tissue processing. Animals were anesthetized, bronchoalveolar lavage fluid (BALF) was obtained and the mice sacrificed. Lung tissues were taken for total RNA extraction or fixed for histological examination. For histological examination, lungs were inflated under 25 cm H2O pressure with 10% (v/v) neutral buffered formalin through the tracheal cannula and immersed in 10% buffered formalin for at least 24 h. After being processed into paraffin blocks, the lungs were cut into 5-μm sections and stained with Masson Trichrome to assess fibrotic changes. Microscopy was performed on a NIKON Eclipse Ti System^75.
Quantification of accumulated mucin was assessed by 2 investigators who were blind to the treatment groups on a subjective scale of 0, 1, 2, 3, and 4 corresponding to none, mild, moderate, marked, or severe mucin deposition, respectively. Data were expressed as means of scores recorded by 2 blinded investigators^76,77.
(§1) Cellular recruitment into the airway lumen was assessed in the collected bronchoalveolar lavage fluid (BALF) of mice. Lungs were perfused twice with 1 mL of sterile PBS (pH 7.4) and total cell counts determined by trypan blue staining and counting using a hemocytometer. Differential cell counts were performed on cytocentrifuge preparations (Cytospin 3; Thermo Shandon, Pittsburgh, Pa.) stained with Wright-Giemsa. A total of 300 cells were counted per sample using light microscopy.
(§2) For gene expression analyses, 0.1 μg of cDNA product from reverse transcription of total RNA was amplified using SYBR Green Supermix (Bio-Rad) and gene-specific primers as previously described^75, 78. Quantification of relative changes in gene expression was calculated using the ΔΔCt method^79,80 and expression as the fold change between experimental and control samples was normalized to internal control peptidylprolyl isomerase A (PPI1A)/cyclophilin A.
Confocal Immunofluorescence assays of lung sections were performed on formalin-fixed, paraffin-embedded sections after rehydration using serial concentrations of ethanol. Antigen retrieval was performed in Tris-EDTA buffer (pH 9.0). Lung sections were blocked using 0.1% Triton-X, 5% normal goat serum in phosphate buffered saline (PBS) and incubated with primary antibodies of rabbit anti-p276RelA, pIKKα/β, SNAIL H3K122ac, COL1A, VIM, FN1, and αSMA (Abcam, 1:100 dilution) overnight at 4° C. Normal anti-rabbit IgG were used as staining specificity controls. After washing, lung sections were stained with Alexa Fluor 488- or 568-conjugated goat anti-rabbit IgG (Life Technologies) in incubation buffer for 1 h. Nuclei were stained with 4′, 6-diamidino-2-phenylindole (DAPI) (5 μg/ml in PBS, 20 min) and mounted slides visualized with a LSM510 fluorescence confocal microscope, magnification 63×.
Total IgE in serum were measured using Sandwich ELISA. […]

CIG5 = test: Inhibition of CIG5 induction in hSAECs; type: cell-based; conditions: Homo sapiens
hSAECs = test: CDE-induced mesenchymal transition of hSAECs; type: cell-based, human; conditions: CDE 20 μg/mL 15 d; 10 μM
Method: Immortalized human small airway epithelial cells (hSAECs) were previously described^25. hSAECs were grown in SAGM small airway epithelial cell growth medium (Lonza, Walkersville, Md.) in a humidified atmosphere of 5% CO2. BMS345541 was purchased from Sigma Aldrich. CDE was purchased from Greer Laboratories.
as §2
hSAECs were incubated ±CDE (20 μg/mL) for 15 d, re-plated on glass cover slips pretreated with rat tail collagen (Roche Applied Sciences), and fixed with 4% paraformaldehyde in PBS. Afterwards, the fixed cells were stained with Alexa Fluor® 488- or 568-phalloidin (Life Technologies) for cytoplasmic distribution of F-actin (green or red color) and also counterstained with 4′,6-diamidino-2-phenylindole (DAPI) for nuclear staining (blue color). The cells were visualized with a Nikon fluorescence confocal microscope at a magnification of 63×^75, 78.
For immunofluorescence staining, hSAECs were plated on rat tail collagen-treated cover glasses and stimulated with CDE for the indicated times. The cells were fixed with 4% paraformaldehyde in PBS and incubated with 0.1 m ammonium chloride for 10 min. […] After washing, cells were stained with Alexa Fluor 488- or 568-conjugated goat anti-rabbit IgG (Life Technologies) respectively in incubation buffer for 1 h, then visualized with a LSM510 fluorescence confocal microscope, magnification 63×.

[3] = system: acute CDE-challenged mice; test: Acute intranasal CDE challenge, BALF cell counts; type: in vivo, mouse; conditions: 10 mg/kg; within 24 h of treatment
Excerpt: FIG. 12. BRD4 pathway mediates CDE-induced EMT of airway epithelial cells. […] A, Q-RT-PCR for CDH1 mRNA expression. #, p<0.01, compared to without CDE, n=3. B, Q-RT-PCR for SNAI1 mRNA expression. *, p<0.01, compared to CDE alone, n=3. C, Q-RT-PCR for COL1A, FN1, and VIM mRNA expression. D, Q-RT-PCR for IL6 mRNA expression. E, Confocal immunofluorescence microscopy for phalloidin (green color), H3K122-Ac (red color), SNAI1 (green color), and VIM (red color) counterstained with DAPI (blue color) in WT hSAECs in absence or presence of CDE (20 μg/mL, 15d) stimulation. Images were acquired at 63×. At right are quantifications of relative fluorescence intensities of phalloidin, H3K122ac, SNAIL and VIM, * p<0.01, n=5. […] Shown are total, macrophage, and neutrophil counts in BALF 24 h later after CDE challenge. G. Total serum IgE was quantitated for each chronic treatment group **, p<0.01, n=5.
as §1

[4] = 3 months of administration; cited from earlier work
BRD4 = BRD4 (Homo sapiens, UniProt O60885); conditions: in cellulo; cited from earlier work
IL-6 = test: Inhibition of IL-6 induction in hSAECs; type: cell-based; conditions: Homo sapiens

SMILES: CCC(=O)O[C@]1(C(=O)SCF)[C@H](C)C[C@H]2[C@@H]3C[C@H](F)C4=CC(=O)C=C[C@]4(C)[C@@]3(F)[C@@H](O)C[C@@]21C [Fluticasone propionate]
solubility in dimethyl sulfoxide and dimethylformamide [1]: freely soluble
solubility in methanol and 95% ethanol [1]: slightly soluble
solubility in water ([1]; water): practically insoluble

SMILES: Cc1ccc2nc(NCCN)c3ncc(C)n3c2c1 [IKKi, reference compound]
total leukocytes in the BALF ([2]; rCDE 15 intranasal challenges, rCDE alone 1,700×10^3): 450×10^3 cells/ml
CDE-specific circulating IgE (allergic sensitization) ([2]; rCDE): completely blocked
PAS staining (mucin, mucous metaplasia) ([2]; rCDE): blocked
fibrosis / collagen formation and hypercellularity (Masson trichrome) ([2]; rCDE): reduced the fibrosis and hypercellularity, although not completely in the alveoli
mesenchymal and ECM gene mRNA expression in total lung RNA (Q-RT-PCR) ([2]; rCDE): inhibited
mucosal mesenchymal and ECM proteins (SNAI1, VIM, COL1A, FN1), immunofluorescence ([2]; rCDE): completely blocked
subepithelial αSMA+/COL1+ myofibroblast population ([2]; rCDE): blocked
hydroxyproline concentration in BALF and lung tissue ([2]; rCDE, rCDE alone 2-fold increase): normalized
modified Ashcroft score ([2]; rCDE): 2±1
phospho-IKKα/β abundance in the airway epithelial layer ([2]; rCDE, rCDE alone 9-fold increase): reduced to control values
mucosal phospho-Ser 276 RelA formation ([2]; rCDE, rCDE alone 14-fold increase): blocked

IC50 (CIG5): 0.42 µM
SMILES: Cc1cc(/N=N/c2ccc3c(c2)CCC(=O)N3)c(N)cc1O [ZL0420]

SMILES: Cc1cc(/N=N/c2ccc(S(=O)(=O)NC3CCCC3)cc2)c(N)cc1O [ZL0454, (E)-4-((2-Amino-4-hydroxy-5-methylphenyl)diazenyl)-N-cyclopentylbenzenesulfonamide]
CDE-specific circulating IgE (allergic sensitization) ([2]; rCDE): completely blunted allergic responses
PAS staining (mucin, mucous metaplasia) ([2]; rCDE): reduced
RelA-BRD4 binding in lung sections (proximity ligation assay) ([2]; rCDE): disrupted
fibrosis / collagen formation and hypercellularity (Masson trichrome) ([2]; rCDE): reduced collagen formation and hypercellularity
mesenchymal and ECM gene mRNA expression in total lung RNA (Q-RT-PCR) ([2]; rCDE): BRD4-dependent
mucosal H3K122 Ac staining (BRD4 HAT activity) ([2]; rCDE): inhibited
mucosal mesenchymal and ECM proteins (SNAI1, VIM, COL1A, FN1), immunofluorescence ([2]; rCDE): inhibited
subepithelial αSMA+/COL1+ myofibroblast population ([2]; rCDE): blocked
hydroxyproline content in the lung ([2]; rCDE, rCDE alone 0.65±1): 0.35 ± 0.4 µg/mg
modified Ashcroft score ([2]; rCDE): 1.5±0.5
hydroxyproline content in BALF ([2]; rCDE, rCDE alone 130±20): 70 ± 10 ng/mL
CDE-induced inhibition of CDH1 mRNA (hSAECs): blocked
CDE-induced upregulation of SNAI1, FN1, VIM, COL1A and IL6 mRNAs (hSAECs): significantly blocked
formation of actin stress fibers, H3K122 Ac, SNAI1 and VIM expression (confocal immunofluorescence) (hSAECs): prevented
acute CDE-induced BALF neutrophilia [3]: blocked
tolerability / apparent toxicity [4]: well tolerated over 3 months of administration without apparent toxicity
BRD4 binding to Pol II and histones (BRD4): disrupts

IC50 (CIG5): 2.6 µM
IC50 (IL-6): 2.8 µM
SMILES: COc1cc(OC)c2c(=O)cc(-c3cc(C)c(OCCO)c(C)c3)oc2c1 [ZL0468]
